Test results as given in US8399417B2, “Food” (Ajinomoto Co., Inc., priority 2007, dated 2013).
Starred links: 1 amine or outer side, 2 acyl side, 3 side chain; linkers in the order of their positions; H or OH if unused. Non-standard residues stand in square brackets, D forms with d. No end group written: not given here. γGlu = O=C(O)[C@H](CCC(=O)[*:2])N[*:1]; Abu = CC[C@H](N)C(=O)O

What was measured:
[1] = Kokumi-imparting activity intensity, quantitative sensory evaluation test; format: in vivo, human; set-up: key: *: Unmeasurable: kokumi-imparting activity is too strong to measure by sensory evaluation
Method: The quantitative sensory evaluation test was performed as follows. […] It should be noted that a sample, which became acidic after the sample had been dissolved, was adjusted with NaOH to pH 6.8 to 7.2 before use. […] The test was performed with n=3 based on the following sensory evaluation scores: control (0 point) and glutathione addition (3 points).
The quantitative sensory evaluation test was performed as follows. […] It should be noted that a sample, which became acidic after the sample had been dissolved, was adjusted with NaOH to pH 6.8 to 7.2 before use. The test was performed with n=5 based on the following sensory evaluation scores: control (0 point) and glutathione addition (3 points).
The quantitative sensory evaluation test was performed as follows. […] It should be noted that a sample, which became acidic after the sample had been dissolved, was adjusted with NaOH to pH 6.8 to 7.2 before use. The test was performed with n=12 based on the following sensory evaluation scores: control (0 point) and glutathione addition (3 points).

[2] = Fat-like richness and smoothness imparted to low-calorie mayonnaise, quantitative sensory evaluation test; format: in vivo, human; details: for Fat-like richness / Smoothness: control 0, strong 3, very strong 5 points
Method: In the same manner as that in Example 1 except that commercially-available low-calorie mayonnaise (having a fat content reduced by 50% compared with a normal product) was used instead of low-fat milk, each peptide was measured for its fat-like richness-imparting intensity.
In the same manner as that in Example 2, each sample was measured for its intensity of imparting fat-like richness.

human calcium receptor = target: T1, human calcium receptor (Homo sapiens, UniProt P41180); assay: Calcium receptor-activating effect: Ca ion concentration-dependent Cl ionic current in Xenopus laevis oocyte expression system; format: cell-based; details: for Activity (lowest concentration at which current was detected): peptide added at 1,000 to 0.1 μM to potential-clamped oocytes, Table 1
T1 construct: expressed in transfected cells; host or cells: Xenopus laevis oocytes injected with cRNA; the gene was PCR-cloned from human kidney cDNA (Clontech) into pBR322
T1 sequence (P41180 20-1078): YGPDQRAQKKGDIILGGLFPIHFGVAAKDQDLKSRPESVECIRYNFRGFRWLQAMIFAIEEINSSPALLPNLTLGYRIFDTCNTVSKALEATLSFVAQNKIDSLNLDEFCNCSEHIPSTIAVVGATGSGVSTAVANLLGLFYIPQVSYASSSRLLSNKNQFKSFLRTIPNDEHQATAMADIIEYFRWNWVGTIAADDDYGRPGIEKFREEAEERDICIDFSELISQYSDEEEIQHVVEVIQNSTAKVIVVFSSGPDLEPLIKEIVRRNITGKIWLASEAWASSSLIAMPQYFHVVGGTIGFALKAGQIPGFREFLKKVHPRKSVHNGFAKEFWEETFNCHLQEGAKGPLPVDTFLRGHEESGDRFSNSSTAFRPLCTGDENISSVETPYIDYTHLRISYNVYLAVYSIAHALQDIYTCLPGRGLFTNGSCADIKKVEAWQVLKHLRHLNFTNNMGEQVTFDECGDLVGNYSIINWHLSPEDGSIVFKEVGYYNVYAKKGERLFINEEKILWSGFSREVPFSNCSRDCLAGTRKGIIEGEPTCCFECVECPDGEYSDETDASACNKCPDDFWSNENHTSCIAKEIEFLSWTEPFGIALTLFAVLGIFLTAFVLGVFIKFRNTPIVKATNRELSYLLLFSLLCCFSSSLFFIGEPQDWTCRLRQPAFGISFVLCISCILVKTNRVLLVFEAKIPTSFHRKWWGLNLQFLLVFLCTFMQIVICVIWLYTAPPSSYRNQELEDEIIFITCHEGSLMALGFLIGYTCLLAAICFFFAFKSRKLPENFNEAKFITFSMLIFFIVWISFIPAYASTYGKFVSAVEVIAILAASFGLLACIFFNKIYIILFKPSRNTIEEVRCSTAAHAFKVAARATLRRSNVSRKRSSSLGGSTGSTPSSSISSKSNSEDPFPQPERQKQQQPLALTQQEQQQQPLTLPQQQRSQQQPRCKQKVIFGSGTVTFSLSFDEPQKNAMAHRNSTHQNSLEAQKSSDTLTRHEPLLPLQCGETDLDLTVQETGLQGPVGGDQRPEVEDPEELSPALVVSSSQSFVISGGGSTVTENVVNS
Method: For evaluation of the calcium receptor-activating effect, a Ca ion concentration-dependent Cl ionic current measuring method using a Xenopus laevis oocyte expression system was used. If each activator is added to Xenopus laevis oocytes expressing the calcium receptor, intracellular Ca ions increase. Then, the Ca ion concentration-dependent Cl channel opens, and the intracellular current value changes as an ionic current. By measuring the change in the intracellular current value, whether the calcium receptor-activating effect is present or not can be determined.
Specifically, the abdomen of Xenopus laevis was opened, and an egg batch was taken out and then treated with a 1% collagenase solution at 20° C. for 2 hours to obtain individual oocytes. Into the oocytes, 50 nl of 1 μg/μl receptor cRNA or 50 nl of sterilized water per oocyte were injected by using a micro glass capillary, and the oocytes were cultured at 18° C. for 2 to 3 days. For the culture, a solution obtained by adding 2 mM pyruvic acid, 10 U/ml penicillin, and 10 μg/ml streptomycin to the solution in Reference Example 2 was used. After the culture, a test solution was added to the oocytes injected with cRNA or sterilized water. Electrophysiological measurement was performed by using an amplifier Geneclamp 500 (manufactured by Axon) and recording software AxoScope 9.0 (manufactured by Axon). The oocytes were membrane potential-clamped at −70 mV by the double electrode potential clamp method, and the intracellular current via the Ca ion concentration-dependent Cl ion was measured. The maximum value of the intracellular current was defined as the response current value.
The calcium receptor-activating effect of L-amino acids was evaluated by using the method described in Reference Example 6. That is, oocytes injected with cRNA of the calcium receptor or sterilized water were prepared, and membrane potential-clamped at −70 mV by the double electrode potential clamp method. To the potential-clamped oocytes, alanine (10 mM), arginine (10 mM), asparagine (10 mM), aspartic acid (10 mM), cysteine (10 mM), glutamine (10 mM), glutamic acid (10 mM), glycine (10 mM), histidine (10 mM), isoleucine (10 mM), leucine (10 mM), lysine (10 mM), methionine (10 mM), phenylalanine (10 mM), proline (10 mM), serine (10 mM), threonine (10 mM), tryptophan (10 mM), tyrosine (10 mM), valine (10 mM), ornithine (10 mM), taurine (10 mM), or hydroxyproline (10 mM) was added, and Ca ion concentration-dependent Cl response current was measured. […] 25, 2000, 97(9): 4814-9.
The calcium receptor-activating effect of D-cysteine was evaluated by using the method described in Reference Example 6. That is, oocytes injected with cRNA of the calcium receptor or sterilized water were prepared, and membrane potential-clamped at −70 mV by the double electrode potential clamp method. To the potential-clamped oocytes, D-cysteine (10 mM), L-cysteine (10 mM), D-tryptophan (10 mM), or L-tryptophan (10 mM) was added, and Ca ion concentration-dependent Cl response current was measured.
The calcium receptor-activating effect of a peptide was evaluated by using the method described in Reference Example 6. That is, oocytes injected with cRNA of the calcium receptor or sterilized water were prepared, and membrane potential-clamped at −70 mV by the double electrode potential clamp method.
The calcium receptor-activating effects of peptides were evaluated in the same manner as that of Reference Example 10. Each of the peptides shown in Table 1 was added to potential-clamped oocytes at 1,000 μM, 300 μM, 100 μM, 30 μM, 10 μM, 3 μM, 1 μM, 0.3 μM, and 0.1 μM, and Ca ion concentration-dependent Cl response current was measured.

[3] = 0.01 g/dl, n=12, control 0, glutathione 3 points, Table 5
[4] = 0.001 g/dl in low-calorie mayonnaise, Table 7
[5] = 0.01 g/dl in low-calorie mayonnaise (fat reduced by 50%), Table 7
[6] = 0.01 g/dl in low-calorie mayonnaise, Table 7
[7] = 0.01 g/dl, n=5, control 0, glutathione 3 points, Table 4
[8] = 0.0001 g/dl in low-calorie mayonnaise, Table 7
[9] = 0.001 g/dl in low-calorie mayonnaise, Table 9
[10] = 0.1 g/dl, n=5, control 0, glutathione 3 points, Table 4
[11] = 0.1 g/dl, n=12, control 0, glutathione 3 points, Table 5

[γGlu]-[Abu]-Gly
Kokumi intensity, Aftertaste [1, 3]: 2.0 points | Kokumi intensity, Initial and middle taste [1, 3]: 3.0 points | Taste profile [2, 4]: Fat-like richness with sweet | Fat-like richness [2, 4]: 3.2 points | Smoothness [2, 4]: 3.0 points | Fat-like richness [2, 5]: 4.7 points | Taste profile [2, 6]: Fat-like richness with sweet | Smoothness [2, 6]: 4.3 points | Activity (lowest concentration at which current was detected) (human calcium receptor): 3 µM

[γGlu]-Val-Gly
Kokumi intensity, Aftertaste [1, 7]: 3.0 points | Kokumi intensity, Initial and middle taste [1, 7]: 3.0 points | Kokumi intensity, Aftertaste [1, 3]: 3.0 points | Kokumi intensity, Initial and middle taste [1, 3]: 3.0 points | Kokumi intensity, Aftertaste ([1]; 0.1 g/dl, n=5, Table 4): * | Kokumi intensity, Initial and middle taste ([1]; 0.1 g/dl, n=5, Table 4): * | Taste profile ([1]; 0.1 g/dl, n=5, Table 4): * | Taste profile [2, 8]: Taste is enhanced in middle | Fat-like richness [2, 8]: 3.0 points | Smoothness [2, 8]: 3.0 points | Taste profile [2, 4]: Taste is enhanced in middle | Taste profile [2, 9]: Taste is enhanced in middle | Fat-like richness [2, 4]: 4.8 points | Smoothness [2, 4]: 4.5 points | Fat-like richness [2, 9]: 4.8 points | Smoothness [2, 9]: 4.5 points | Activity (lowest concentration at which current was detected) (human calcium receptor): 0.1 µM

N[C@@H](CCC(=O)N[C@@H](CS)C(=O)NCC(=O)O)C(=O)O [γ-Glu-Cys-Gly, reference compound]
Taste profile ([1]; 0.1 g/dl, n=3, Table 3): Thickness, growth, and continuity | Kokumi intensity, Aftertaste ([1]; 0.1 g/dl, n=3, control 0, glutathione 3 points, Table 3): 3.0 points | Kokumi intensity, Aftertaste [1, 10]: 3.0 points | Kokumi intensity, Initial and middle taste [1, 10]: 3.0 points | Kokumi intensity, Aftertaste [1, 11]: 3.0 points | Kokumi intensity, Initial and middle taste [1, 11]: 3.0 points | Kokumi intensity, Initial and middle taste ([1]; 0.1 g/dl, sodium glutamate, inosine monophosphate, sodium chloride solution, n=3, control 0, glutathione 3 points, Table 3): 3.0 points | Fat-like richness [2, 5]: 3.5 points | Taste profile [2, 6]: Fat-like richness with sweet | Smoothness [2, 6]: 3.0 points | calcium receptor-activating effect (Cl response current) (human calcium receptor; peptide 50 μM, FIG. 4): definite calcium receptor-activating effect
